Measured values taken from PubChem BioAssay AID1633 (PCMD, 2009).

Target: Procathepsin L (Homo sapiens) (UniProt P07711)
Experiment: CTSL inhibition IC50, probe compound – biochemical, dose response (AID 1633)
Details: purified cathepsin L, fluorogenic substrate, enzyme inhibition

Procathepsin L (Homo sapiens), sequence (P07711 114-288 limits assumed): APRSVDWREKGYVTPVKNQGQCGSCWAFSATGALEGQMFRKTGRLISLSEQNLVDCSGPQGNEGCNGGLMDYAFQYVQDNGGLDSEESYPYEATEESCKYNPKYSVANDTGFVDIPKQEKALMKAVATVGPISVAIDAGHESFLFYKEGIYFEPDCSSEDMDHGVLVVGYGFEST
Procathepsin L (Homo sapiens), sequence (P07711 292-333 limits assumed): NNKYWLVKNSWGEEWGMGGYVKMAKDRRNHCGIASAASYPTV

IC50: 201 nM
SMILES: CCc1ccccc1NC(=O)CSC(=O)NNC(=O)[C@H](Cc1c[nH]c2ccccc12)NC(=O)OC(C)(C)C
